This is an account of results in publication PMC5887109, “Unravelling the Molecular Determinants of Bee Sensitivity to Neonicotinoid Insecticides” (Current Biology, 2018).

Each structure is given as a SMILES string.

For one data set, the system named is honeybees. As to conditions: depends on route of exposure; cited from earlier work.
In a further data set the test system is Bombus terrestris. The data set can be described thus: Acute oral insecticide bioassay of bumble bees, with or without PBO. The conditions noted are these: for increase in the sensitivity of bumble bees after treatment with PBO: oral bioassay, PBO pretreatment; for LD50: 48 hours after application. Here is the method: (§1) Acute contact insecticide assays were performed on female A. mellifera following standard methods OECD 2013 [30]. Bioassays of B. terrestris were based on the OECD guidelines developed for honeybees but with bees assayed in individual Nicot cages. Bees were starved of sucrose solution for up to 2 hr to encourage feeding during the experiment. […] Controls were fed a solution of sucrose containing a concentration of acetone matching that of the highest treatment concentration. After 4-6 hr the syringes were assessed to see if bees had consumed the insecticide-sucrose solution. Those that had not consumed all of the solution were excluded from the experiment. Mortality was assessed 48 hr after feeding and lethal concentrations (LC50 values) were calculated by probit analysis using Genstat version 16 (VSN International). For synergist bioassays, B. terrestris or A. mellifera workers were first treated with 20 μg of piperonyl butoxide or 1 μg of aminobenzotriazole applied to the dorsal thorax. Synergist bioassays included an additional control group treated only with the synergist. 1 hr after synergist application, bees were then treated with the appropriate insecticide dosage as above.

In data set [1] the target is nicotinic acetylcholine receptor (nAChR). The data set can be described thus: [3H]imidacloprid displacement, bumble bee head membrane preparations. Type of data set: binding, B. terrestris. As to conditions: bumble bee head membranes; 95% CI given in text. Here is the method:
(§2) [^3H]imidacloprid (specific activity 1.406 GBq μmol^−1) displacement studies were conducted using membrane preparations isolated from frozen (−80°C) honeybee and bumble bee heads, respectively, following previously published protocols. Briefly, bee heads weighing 10cg were homogenized in 200cml ice-cold 0.1cM potassium phosphate buffer, pH 7.4 containing 95cmM sucrose using a motor-driven Ultra Turrax blender. […] Assays were performed in a 96-well microtiter plate with bonded GF/C filter membrane (Packard UniFilter-96, GF/C) and consisted of 200 μL of homogenate (0.48cmg protein), 25 μL of [^3H]imidacloprid (576cpM) and 25 μL of competing ligand. Ligand concentrations used ranged from 0.001 to 10c000cnM and were tested at least in duplicate per competition assay. The assay was started by the addition of homogenate and incubated for 60cmin at room temperature. Bound [^3H]imidacloprid was quantified by filtration into a second 96-well filter plate (conditioned with ice-cold 100cmM potassium phosphate buffer, pH 7.4 (including BSA 5cg liter−1)) using a commercial cell harvester (Brandel). […] Each well was then loaded with 25 μL of scintillation cocktail (Microszint-O-Filtercount, Packard) and the plate counted in a Topcount scintillation counter (Packard). Non-specific binding was determined using a final concentration of 10cμM unlabelled imidacloprid. […]

The target is the same in data set [2]. Kind of data set: [3H]imidacloprid displacement, honeybee head membrane preparations. As to conditions: honeybee head membranes; 95% CI given in text. Type of data set: binding, A. mellifera. Here is the method:
as §2

Data set [3] deals with transgenic Drosophila expressing honeybee CYP9Q1. Kind of data set: Insecticide bioassay of transgenic Drosophila expressing CYP9Q1. Type of data set: in vivo, Drosophila melanogaster. As to conditions: Act5C-GAL4 driven; ratio of LC50 values. Here is the method:
(§3) Fly lines were made homozygous for the transgene integrations. […] LC50 values were calculated as above.

The subject of a further data set is A. mellifera. Kind of data set: Acute contact (topical) insecticide bioassay of honeybees, with or without ABT. The conditions noted are these: honeybees pretreated with ABT (1-aminobenzotriazole). The protocol: as §1
For data set [4], the system named is transgenic Drosophila expressing honeybee CYP9Q2. The data set can be described thus: Insecticide bioassay of transgenic Drosophila expressing CYP9Q2. Type of data set: in vivo, Drosophila melanogaster. The conditions noted are these: Act5C-GAL4 driven; ratio of LC50 values. The protocol:
as §3

For data set [5], the system named is transgenic Drosophila expressing B. terrestris CYP9Q4. The data set can be described thus: Insecticide bioassay of transgenic Drosophila expressing CYP9Q4. As to conditions: Act5C-GAL4 driven; ratio of LC50 values. Type of data set: in vivo, Drosophila melanogaster. Here is the method: as §3
The subject of data set [6] is transgenic Drosophila expressing B. terrestris CYP9Q5. The data set can be described thus: Insecticide bioassay of transgenic Drosophila expressing CYP9Q5. Type of data set: in vivo, Drosophila melanogaster. The conditions noted are these: Act5C-GAL4 driven; ratio of LC50 values. The protocol:
as §3

The subject of data set [7] is transgenic Drosophila expressing honeybee CYP9Q3. The data set can be described thus: Insecticide bioassay of transgenic Drosophila expressing CYP9Q3. The conditions noted are these: Act5C-GAL4 driven; ratio of LC50 values. Type of data set: in vivo, Drosophila melanogaster. Here is the method: as §3

A word on the IC50: it is the concentration that inhibits the measured activity by half. The low end stands for greater potency, the high end for weaker potency.

`N#C/N=C1\SCCN1Cc1ccc(Cl)nc1` [thiacloprid]: the EPA toxicity category entry in the data set with honeybees is “slightly toxic” or “practically non-toxic”. For the same compound, the “increase in the sensitivity of bumble bees after treatment with PBO” value in the data set with Bombus terrestris amounted to 4.2 fold. Moreover, the LD50 with Bombus terrestris (oral, no synergist) stood at 19.68 μg/bee; in the data set with Bombus terrestris (oral, synergist PBO) it was 4.73 μg/bee. In addition, the IC50 in data set [1] amounted to 0.62 nM; in data set [2], 1.1 nM.
`O=[N+]([O-])NC1=NCCN1Cc1ccc(Cl)nc1` [imidacloprid]: the EPA toxicity category result in the data set with honeybees is on record as “highly toxic”. Besides, the “resistance compared to control flies without the transgene” value in data set [3] was “no significant differences in sensitivity”; in data set [4], “no significant differences in sensitivity”; in data set [5], “no significant differences”; in [6], “no significant differences”; in data set [7] it was “no significant differences in sensitivity”. The “fold more sensitive after pretreatment with ABT” value in the data set with A. mellifera came to 2.7 fold. In addition, the “increase in the sensitivity of bumble bees after treatment with PBO” value in the data set with Bombus terrestris was “no significant shift”. Also, the “Synergism Ratio” value with Bombus terrestris (oral, PBO versus no synergist) came out at 1.2. Further, the LD50 in the data set with Bombus terrestris (oral, no synergist) is on record as 0.038 μg/bee; in the data set on Bombus terrestris (oral, synergist PBO), 0.032 μg/bee. In addition, the IC50 in data set [1] was found to be 0.71 nM; in [2], 1.2 nM.
